Patent US9168278B2, “Use for cannabinoid” (GW Pharma Limited, priority 2004, dated 2015)
Read-outs that look alike come from different tables or passages of the source.

What was measured:
[1] = system: mouse isolated vas deferens (α1-adrenoceptor agonist phenylephrine hydrochloride); assay: Contractile responses of the vas deferens to phenylephrine; settings: for contractions induced by phenylephrine: at 1 μM
Description: (§1) Vasa deferentia were obtained from albino MF1 mice weighing 31 to 59 g. The tissues were mounted vertically in 4 ml organ baths. They were then subjected to electrical stimulation of progressively greater intensity followed by an equilibration procedure in which they were exposed to alternate periods of stimulation (2 min) and rest (10 min) until contractions with consistent amplitudes were obtained (Thomas et al., 2004). These contractions were monophasic and isometric and were evoked by 0.5 s trains of pulses of 110% maximal voltage (train frequency 0.1 Hz; pulse frequency 5 Hz; pulse duration 0.5 ms).
Only one addition of phenylephrine was made to each tissue and this was carried out 30 min after the addition of THCV, WIN or drug vehicle.
(§2) Inhibition of the electrically-evoked twitch response of the vas deferens has been expressed in percentage terms and this has been calculated by comparing the amplitude of the twitch response after each addition of a twitch inhibitor with its amplitude immediately before the first addition of the inhibitor. Contractile responses to phenylephrine and β,γ-methylene-ATP have been expressed as increases in tension (g).

[2] = system: mouse isolated vas deferens; assay: Electrically-evoked contractions of the mouse isolated vas deferens
Description: Experiments were also carried out with the mouse isolated vas deferens, a tissue in which cannabinoid receptor agonists such as R-(+)-WIN55212, CP55940, THC and 2-arachidonoyl ethanolamide (anandamide) can inhibit electrically-evoked contractions (Devane et al., 1992; Pertwee et al., 1995).
Cannabinoid receptor agonists are thought to inhibit the electrically evoked contractions by acting on prejunctional neuronal cannabinoid CB1 receptors to inhibit release of the contractile neurotransmitters, ATP, (acting on postjunctional P2X purinoceptors), and noradrenaline, (acting on postjunctional α1-adrenoceptors), (Trendelenberg et al., 2000).
as §1
Except in experiments with phenylephrine, all drug additions were made to the organ baths after the equilibration period and there was no washout between these additions. In most experiments there was an initial application of a potential antagonist or its vehicle. This was followed 28 min later by a 2 min period of electrical stimulation at the end of which the lowest of a series of concentrations of the twitch inhibitors, R-(+)-WIN55212, CP55940, THC, anandamide, (−)-7-hydroxy-cannabidiol-dimethylheptyl or clonidine, was applied.
After a period of rest, the tissues were electrically stimulated for 2 min and then subjected to a further addition of twitch inhibitor.
This cycle of drug addition, rest and 2 min stimulation was repeated so as to construct cumulative concentration-response curves. Only one concentration-response curve was constructed per tissue. Rest periods were 3 min for clonidine, 13 min for R-(+)-WIN55212, CP55940 and anandamide, 28 min for THC and THCV, and 58 min for (−)-7-hydroxy-cannabidiol-dimethylheptyl.
Experiments were also performed with capsaicin. This drug was added at intervals of 3 min and the tissues were not rested from electrical stimulation between these additions.
In some experiments, cumulative concentration-response curves for THCV were constructed without prior addition of any other compound, again using a cycle of drug addition, 28 min rest and 2 min stimulation.
as §2
Values for EC50, for maximal effect (Emax) and for the s.e.mean or 95% confidence limits of these values have been calculated by nonlinear regression analysis using the equation for a sigmoid concentration-response curve (GraphPad Prism).
(§3) The apparent dissociation constant (KB) values for antagonism of agonists by THCV in the vas deferens or [^35S]GTPγS binding assay have been calculated by Schild analysis from the concentration ratio, defined as the concentration of an agonist that elicits a response of a particular size in the presence of a competitive reversible antagonist at a concentration, B, divided by the concentration of the same agonist that produces an identical response in the absence of the antagonist.
Mean values have been compared using Student's two-tailed t-test for unpaired data or one-way analysis of variance (ANOVA) followed by Dunnett's test (GraphPad Prism). […]

[3] = system: mouse isolated vas deferens (P2 receptor agonist β,γ-methylene-ATP); assay: Contractile responses of the vas deferens to β,γ-methylene-ATP; settings: for contractions induced by β,γ-methylene-ATP: at 1 μM
Description: as §1
In experiments with β,γ-methylene-ATP, no electrical stimuli were applied after the equilibration procedure. Log concentration-response curves of β,γ-methylene-ATP were constructed cumulatively without washout. THCV, WIN or drug vehicle were added 30 min before the first addition of β,γ-methylene-ATP, each subsequent addition of which was made immediately after the effect of the previous dose had reached a plateau (dose cycles of 1 to 2 min).
as §2

[4] = target: T1, cannabinoid CB1 receptors (mouse brain membranes) (Mus musculus, UniProt P47746); assay: [35S]GTPγS binding assay, mouse brain membranes; assay type: biochemical; settings: for Kb: Mean apparent KB, brain membranes, THCV 1000 nM
T1 construct: membranes prepared from healthy brain tissue, which is densely populated with CB1 but not CB2 receptors; from tissue; host or cells: mouse brain membranes
T1 sequence (P47746 whole entry): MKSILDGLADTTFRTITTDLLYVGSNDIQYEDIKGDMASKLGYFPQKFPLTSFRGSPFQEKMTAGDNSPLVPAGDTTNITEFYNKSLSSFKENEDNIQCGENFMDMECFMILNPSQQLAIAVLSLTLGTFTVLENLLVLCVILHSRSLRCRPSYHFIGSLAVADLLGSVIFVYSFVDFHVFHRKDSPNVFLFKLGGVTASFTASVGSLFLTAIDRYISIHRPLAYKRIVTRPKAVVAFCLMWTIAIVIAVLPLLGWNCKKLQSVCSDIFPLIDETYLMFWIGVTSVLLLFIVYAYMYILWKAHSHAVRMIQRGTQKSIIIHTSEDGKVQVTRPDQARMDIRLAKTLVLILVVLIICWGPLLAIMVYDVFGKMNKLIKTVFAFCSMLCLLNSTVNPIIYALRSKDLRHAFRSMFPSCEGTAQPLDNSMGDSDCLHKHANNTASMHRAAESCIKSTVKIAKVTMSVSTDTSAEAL
Description: (§4) The assays were carried out with GTPγS binding buffer (50 mM Tris-HCl; 50 mM Tris-Base; 5 mM MgCl2; 1 mM EDTA; 100 mM NaCl; 1 mM DTT; 0.1% BSA) in the presence of [^35S]GTPγS and GDP, in a final volume of 500 μl. Binding was initiated by the addition of [^35S]GTPγS to the tubes. Nonspecific binding was measured in the presence of 30 μM GTPγS.
(§5) The drugs were incubated in the assay for 60 min at 30° C. The reaction was terminated by a rapid vacuum filtration method using Tris buffer (50 mM Tris-HCl; 50 mM Tris-Base; 0.1% BSA), and the radioactivity was quantified by liquid scintillation spectrometry.
The concentrations of [^35S]GTPγS and GDP present in the assay varied depending on whether the assay was conducted with mouse brain or transfected cell membranes.
Additionally, mouse brain membranes were preincubated for 30 minutes at 30° C. with 0.5 U ml^−1 adenosine deaminase to remove endogenous adenosine. Agonists and antagonists were stored as a stock solution of 1 or 10 mM in DMSO, the vehicle concentration in all assay tubes being 0.11% DMSO.
as §3
Mean values have been compared using Student's two-tailed t-test for unpaired data or one-way analysis of variance (ANOVA) followed by Dunnett's test (GraphPad Prism). A P-value <0.05 was considered to be significant.

[5] = target: T2, CB1 receptors (mouse brain membranes) (Mus musculus, UniProt P47746); assay: Radioligand displacement assay, mouse brain membranes; assay type: binding
T2 construct: membranes prepared from healthy brain tissue, which is densely populated with CB1 but not CB2 receptors; from tissue; host or cells: mouse brain membranes
T2 sequence (P47746 whole entry): as above
Description: Experiments were performed with membranes prepared from healthy brain tissue, which is densely populated with CB1 but not CB2 receptors (reviewed in Howlett et al. 2002).
Binding was initiated by the addition of either the brain membranes (33 μg protein per tube) or the transfected hCB2 cells (25 μg protein per tube).
All assays were performed at 37° C. for 60 min before termination by addition of ice-cold wash buffer (50 mM Tris buffer, 1 mg ml^−1 bovine serum albumin, pH 7.4) and vacuum filtration using a 24-well sampling manifold and GF/B filters that had been soaked in wash buffer at 4° C. for at least 24 h.
Each reaction tube was washed six times with a 1.2 ml aliquot of wash buffer. The filters were oven-dried for 60 min and then placed in 5 ml of scintillation fluid. Radioactivity was quantified by liquid scintillation spectrometry.
Specific binding was defined as the difference between the binding that occurred in the presence and absence of 1 μM unlabelled CP55940. THCV was stored as a stock solution of 10 mM in DMSO, the vehicle concentration in all assay tubes being 0.1% DMSO.
Values are expressed as means and variability as s.e.mean or as 95% confidence limits. […] Its dissociation constant (Ki value) was calculated using the equation of Cheng & Prusoff (1973).

[6] = target: T3, hCB2 receptors (CHO cells transfected with hCB2) (Homo sapiens, UniProt P34972); assay: Radioligand displacement assay, CHO-hCB2 cell membranes; settings: Cheng & Prusoff, read-out: mean Ki, displacement of [3H]CP55940 from specific binding sites
T3 construct: expressed in transfected cells; host or cells: CHO cells
T3 sequence (P34972 whole entry): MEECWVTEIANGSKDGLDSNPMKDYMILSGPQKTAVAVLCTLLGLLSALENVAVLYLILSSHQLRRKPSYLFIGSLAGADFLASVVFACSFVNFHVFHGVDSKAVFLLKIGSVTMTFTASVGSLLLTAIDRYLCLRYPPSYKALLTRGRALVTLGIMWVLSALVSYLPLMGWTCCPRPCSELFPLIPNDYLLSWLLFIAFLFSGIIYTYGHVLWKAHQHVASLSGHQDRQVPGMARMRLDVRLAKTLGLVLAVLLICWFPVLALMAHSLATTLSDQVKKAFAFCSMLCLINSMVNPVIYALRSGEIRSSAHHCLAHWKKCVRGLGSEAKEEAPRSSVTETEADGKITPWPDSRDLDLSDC

[7] = target: T4, transfected cannabinoid CB2 receptors (CHO-hCB2 cell membranes) (Homo sapiens, UniProt P34972); assay: [35S]GTPγS binding assay, CHO-hCB2 cell membranes; assay type: biochemical
T4 construct: expressed in transfected cells; host or cells: CHO cells
T4 sequence (P34972 whole entry): as above
Description: The conditions used for measuring agonist-stimulated [^35S]GTPγS binding to transfected cannabinoid CB2 receptors were adapted from those used by MacLennan et al. (1998) and Griffin et al. (1999).
as §4, §5
The concentrations of [^35S]GTPγS and GDP present in the assay varied depending on whether the assay was conducted with mouse brain or transfected cell membranes. […]
Net agonist-stimulated [^35S]GTPγS binding values were calculated by subtracting basal binding values (obtained in the absence of agonist) from agonist-stimulated values (obtained in the presence of agonist) as detailed elsewhere (Ross et al., 1999a). […]

Cc1c(C(=O)c2cccc3ccccc23)c2cccc3c2n1[C@H](CN1CCOCC1)CO3 [R-(+)-WIN55212, reference compound]
contractions induced by phenylephrine [1]: did not decrease
inhibition of electrically-evoked contractions ([2]; at 1 μM): markedly attenuated
contractions induced by β,γ-methylene-ATP [3]: did not decrease

CCCc1cc(O)c2c(c1)OC(C)(C)[C@@H]1CCC(C)=C[C@@H]21 [THCV, tetrahydrocannabivarin]
contractions induced by phenylephrine [1]: did not induce any significant reduction
contractile responses to phenylephrine hydrochloride ([1]; at 31.6 μM): attenuated
Kb ([4]; agonist CP55940, SR141716A 10 nM): 93.1 nM
Kb ([4]; agonist R-(+)-WIN55212): 85.4 nM
effect by itself on [35S]GTPγS binding ([4]; mouse brain membranes, at antagonist concentrations): did not affect
EC50 ([5]; EC50, displacement of [3H]CP55940, mouse brain membranes, n=4 to 8): 98.2 nM
EC50 ([5]; mean EC50, displacement of [3H]R-(+)-WIN55212, mouse brain membranes, n=4 to 7): 61.3 nM
EC50 ([5]; mean EC50, displacement of [3H]SR141716A, mouse brain membranes, n=4 to 6): 86.8 nM
Ki ([5]; mouse brain membranes, Cheng & Prusoff, read-out: mean Ki, displacement of [3H]CP55940 from specific binding sites): 75.4 nM
Kb ([2]; Mus musculus, twitch inhibitor 7-OH-CBD-DMH, THCV 100 nM, read-out: Mean apparent KB of THCV): > 100 nM
Kb ([2]; Mus musculus, twitch inhibitor CP55940, THCV 100 nM, read-out: Mean apparent KB of THCV): 10.3 nM
Kb ([2]; Mus musculus, twitch inhibitor R-(+)-WIN55212, THCV 10-1000 nM, Tallarida method, read-out: Mean apparent KB of THCV): 1.5 nM
Kb ([2]; Mus musculus, twitch inhibitor THC, THCV 1000 nM, read-out: Mean apparent KB of THCV): 96.7 nM
Kb ([2]; Mus musculus, twitch inhibitor anandamide, THCV 10 nM, read-out: mean apparent KB for antagonism of anandamide): 1.4 nM
Kb ([2]; Mus musculus, twitch inhibitor anandamide, THCV 100 nM, read-out: Mean apparent KB of THCV): 1.2 nM
Kb ([2]; Mus musculus, twitch inhibitor capsaicin, THCV 100 nM, read-out: Mean apparent KB of THCV): > 100 nM
Kb ([2]; Mus musculus, twitch inhibitor clonidine, THCV 100 nM, read-out: Mean apparent KB of THCV): > 100 nM
Kb ([2]; Mus musculus, twitch inhibitor methanandamide, THCV 100 nM, read-out: Mean apparent KB of THCV): 4.6 nM
EC50 ([2]; Mus musculus, compound alone, read-out: EC50, inhibition of electrically-evoked contractions): 12700 nM
inhibition of electrically-evoked contractions in presence of SR141716A ([2]; SR141716A 100 nM, n=7): not attenuated
concentration above which electrically-evoked contractions were inhibited ([2]; SR141716A-independent manner): above 3 μM
antagonism of THC-induced twitch inhibition ([2]; THCV 100 nM, n=11): Nor did 100 nM THCV antagonize
inhibition of electrically-evoked contractions ([2]; at 1 μM): no detectable inhibitory effect
inhibition of electrically-evoked contractions ([2]; at 31.6 μM): marked inhibition
contractions induced by β,γ-methylene-ATP [3]: did not induce any significant reduction
contractile responses to β,γ-methylene-ATP ([3]; at 31.6 μM): attenuated
Ki [6]: 62.8 nM
Kb [7]: 10.1 nM
effect by itself on [35S]GTPγS binding ([7]; CHO-hCB2 cell membranes, at antagonist concentrations): did not affect
